According to patent US20040192581A1, “Topical anti-infective formulations” (priority 2002, published 2004):

System: S. aureus
Assay: In vitro efficacy of nisin cream versus nisin in PBS, viable cell count
Format: cell-based
Settings: 37° C. for 60 minutes
Protocol: A topical cream (100 g) was prepared by heating the waxes and oils to about 70° C. Nisin in an aqueous solution was added after the cream had cooled to room temperature. The following ingredients were mixed in a 250 mL glass beaker until a homogenous compound was formed:
To test the anti-infective activity of the nisin-based cream, and to compare this activity to that of the same concentration of nisin in PBS, 20 μL of a suspension of 9×10^8 CFU/mL S. aureus was added to 1 g of cream and 1 mL of PBS at the nisin concentrations indicated in Table I. The samples were vortexed to mix and incubated at 37° C. for 60 minutes. 1 mL of mineral oil was added to the cream to facilitate pipetting and then serial dilutions were plated for enumeration of viable cells. The data in Table I show the viable cells for each nisin concentration.

Nisin was tested, and the “viable cells, PBS” value (nisin 0.5 μg/ml in PBS) was “TNTC”, the “viable cells, Cream” value (nisin 0.5 μg/ml in cream) was 1082 cfu/ml and the “viable cells, PBS” value (nisin 2.5 μg/ml in PBS) was “TNTC”. The “viable cells, Cream” value (nisin 2.5 μg/ml in cream) was 140 cfu/ml, the “viable cells, PBS” value (nisin 12.5 μg/ml in PBS) was 482 cfu/ml and the “viable cells, Cream” value (nisin 12.5 μg/ml in cream) was 12 cfu/ml.
